Laboratory results taken from US10227388B2, “Peptides and combination of peptides for use in immunotherapy against non-small cell lung cancer and other cancers” (immatics biotechnologies GmbH, priority 2015, dated 2019).

Legend:
HLA-A*02:01 = HLA-A*02:01 (Homo sapiens, UniProt P04439, D140Y/D185E/D98H/E176V/E277Q/G131W/G231S/I119V/I121R/I166T/I218V/L300P/L318F/N151K/N90K/P208A/P217A/Q86G/Q94H/R138H/R169H/T345S); experiment: MHC binding assay (UV-ligand exchange, ELISA, peptide exchange yield); conditions: binding of HLA-class I restricted peptides to HLA-A*02:01
Summary of the method: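 Peptide–HLA-A*02:01 complexes made by UV-ligand exchange of a UV-cleavable peptide for the test peptide. Exchange yield measured by ELISA: 100-fold diluted monomers captured on streptavidin, 1 h at 37° C., detected with HRP anti-β2m and TMB, absorbance at 450 nm.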

CD8+ T cells = experiment: In vitro immunogenicity: T-cell priming with artificial antigen presenting cells loaded with peptide/MHC complexes and anti-CD28 antibody, multimer readout; format: cell-based, human; conditions: for Wells positive [%]: HLA-A*02 restricted peptides, positive wells among evaluable; for in vitro immunogenicity, donors: percentage of positive donors; for in vitro immunogenicity, wells: percentage of positive wells
Protocol: In an aspect, the peptides are pre-screened for immunogenicity before being included in the warehouse. By way of example, and not limitation, the immunogenicity of the peptides included in the warehouse is determined by a method comprising in vitro T-cell priming through repeated stimulations of CD8+ T cells from healthy donors with artificial antigen presenting cells loaded with peptide/MHC complexes and anti-CD28 antibody.
In order to obtain information regarding the immunogenicity of the TUMAPs of the present invention, the inventors performed investigations using an in vitro T-cell priming assay based on repeated stimulations of CD8+ T cells with artificial antigen presenting cells (aAPCs) loaded with peptide/MHC complexes and anti-CD28 antibody.
In order to perform in vitro stimulations by artificial antigen presenting cells loaded with peptide-MHC complex (pMHC) and anti-CD28 antibody, the inventors first isolated CD8+ T cells from fresh HLA-A*02 leukapheresis products via positive selection using CD8 microbeads (Miltenyi Biotec, Bergisch-Gladbach, Germany) of healthy donors obtained from the University clinics Mannheim, Germany, after informed consent.
PBMCs and isolated CD8+ lymphocytes were incubated in T-cell medium (TCM) until use consisting of RPMI-Glutamax (Invitrogen, Karlsruhe, Germany) supplemented with 10% heat inactivated human AB serum (PAN-Biotech, Aidenbach, Germany), 100 U/ml Penicillin/100 μg/ml Streptomycin (Cambrex, Cologne, Germany), 1 mM sodium pyruvate (CC Pro, Oberdorla, Germany), 20 μg/ml Gentamycin (Cambrex). 2.5 ng/ml IL-7 (PromoCell, Heidelberg, Germany) and 10 U/ml IL-2 (Novartis Pharma, Nürnberg, Germany) were also added to the TCM at this step.
Generation of pMHC/anti-CD28 coated beads, T-cell stimulations and readout was performed in a highly defined in vitro system using four different pMHC molecules per stimulation condition and 8 different pMHC molecules per readout condition.
The purified co-stimulatory mouse IgG2a anti human CD28 Ab 9.3 (Jung et al., 1987) was chemically biotinylated using Sulfo-N-hydroxysuccinimidobiotin as recommended by the manufacturer (Perbio, Bonn, Germany). Beads used were 5.6 μm diameter streptavidin coated polystyrene particles (Bangs Laboratories, Illinois, USA).
pMHC used for positive and negative control stimulations were A*0201/MLA-001 (peptide […] (SEQ ID NO. 664) from modified Melan-A/MART-1) and A*0201/DDX5-001 ([…] from DDX5, SEQ ID NO. 665), respectively.
800.000 beads/200 μl were coated in 96-well plates in the presence of 4×12.5 ng different biotin-pMHC, washed and 600 ng biotin anti-CD28 were added subsequently in a volume of 200 μl. Stimulations were initiated in 96-well plates by co-incubating 1×10^6 CD8+ T cells with 2×10^5 washed coated beads in 200 μl TCM supplemented with 5 ng/ml IL-12 (PromoCell) for 3 days at 37° C. Half of the medium was then exchanged by fresh TCM supplemented with 80 U/ml IL-2 and incubating was continued for 4 days at 37° C. This stimulation cycle was performed for a total of three times. For the pMHC multimer readout using 8 different pMHC molecules per condition, a two-dimensional combinatorial coding approach was used as previously described (Andersen et al., 2012) with minor modifications encompassing coupling to 5 different fluorochromes. Finally, multimeric analyses were performed by staining the cells with Live/dead near IR dye (Invitrogen, Karlsruhe, Germany), CD8-FITC antibody clone SK1 (BD, Heidelberg, Germany) and fluorescent pMHC multimers. For analysis, a BD LSRII SORP cytometer equipped with appropriate lasers and filters was used. Peptide specific cells were calculated as percentage of total CD8+ cells. Evaluation of multimeric analysis was done using the FlowJo software (Tree Star, Oreg., USA). In vitro priming of specific multimer+CD8+ lymphocytes was detected by comparing to negative control stimulations. […]

| Peptide exchange (MHC class I binding score, peptide exchange yield) (HLA-A*02:01) | Substance | Wells positive [%] (CD8+ T cells) | in vitro immunogenicity, donors (CD8+ T cells) | in vitro immunogenicity, wells (CD8+ T cells) |
| --- | --- | --- | --- | --- |
| ″++++″ (≥75% = ++++) | 143 (LLLDITPEI; listed as Homo sapiens) [compound 143] | ″+″ (<20% = +) | – | – |
| ″+++″ (≥50% = +++) | 150 (RLWEEGEELEL; listed as Homo sapiens) [compound 150] | ″+″ (<20% = +) | – | – |
| ″+++″ (≥50% = +++) | 199 (ALQDVPLSSV; listed as Homo sapiens) [compound 199] | ″+″ (<20% = +) | – | – |
| ″+++″ (≥50% = +++) | 247 (VLLPNDLLEKV; listed as Homo sapiens) [compound 247] | ″+″ (<20% = +) | – | – |
| ″+++″ (≥50% = +++) | 283 (ALYIGDGYVIHLA; listed as Homo sapiens) [compound 283] | – | +++ (50%-69% = +++) | + (<20% = +) |
| ″++″ (≥20% = ++) | 319 (SLEPQIQPV; listed as Homo sapiens) [compound 319] | ″+″ (<20% = +) | – | – |
| ″+++″ (≥50% = +++) | 384 (ILFANPNIFV; listed as Homo sapiens) [compound 384] | ″+″ (<20% = +) | – | – |
| ″+++″ (≥50% = +++) | 443 (GLWEIENNPTV; listed as Homo sapiens) [compound 443] | ″+″ (<20% = +) | – | – |
| ″++++″ (≥75% = ++++) | 460 (AMLEKNYKL; listed as Homo sapiens) [compound 460] | ″+″ (<20% = +) | – | – |
| ″+++″ (≥50% = +++) | 489 (KMWEELPEVV; listed as Homo sapiens) [compound 489] | ″+″ (<20% = +) | – | – |
| ″++″ (≥20% = ++) | 499 (KIFDIDEAEEGV; listed as Homo sapiens) [compound 499] | ″+″ (<20% = +) | – | – |
| ″++″ (≥20% = ++) | 511 (FLDPYCSASV; listed as Homo sapiens) [compound 511] | ″+″ (<20% = +) | – | – |
| ″++″ (≥20% = ++) | 603 (FLIEPEHVNTV; listed as Homo sapiens) [compound 603] | ″+″ (<20% = +) | – | – |

Further lines, the substance ahead of its results:

| Substance | Peptide exchange (MHC class I binding score, peptide exchange yield) (HLA-A*02:01) | Wells positive [%] (CD8+ T cells) | in vitro immunogenicity, donors (CD8+ T cells) | in vitro immunogenicity, wells (CD8+ T cells) |
| --- | --- | --- | --- | --- |
| 2 (SLLEADPFL; listed as Homo sapiens) [compound 2] | ″+++″ (≥50% = +++) | ″+″ (<20% = +) | – | – |
| 3 (SLASKLTTL; listed as Homo sapiens) [compound 3] | ″++++″ (≥75% = ++++) | ″+″ (<20% = +) | – | – |
| 8 (FTLGNVVGMYL; listed as Homo sapiens) [compound 8] | ″++++″ (≥75% = ++++) | ″+″ (<20% = +) | – | – |
| 11 (KIFEMLEGV; listed as Homo sapiens) [compound 11] | ″+++″ (≥50% = +++) | ″+″ (<20% = +) | – | – |
| 36 (YVLEDLEVTV; listed as Homo sapiens) [compound 36] | ″++″ (≥20% = ++) | ″+″ (<20% = +) | – | – |
| 38 (FLLEDDIHVS; listed as Homo sapiens) [compound 38] | ″+++″ (≥50% = +++) | ″+″ (<20% = +) | – | – |
| 48 (ALAELYEDEV; listed as Homo sapiens) [compound 48] | ″+++″ (≥50% = +++) | ″+″ (<20% = +) | – | – |
| 56 (KLYEGIPVLL; listed as Homo sapiens) [compound 56] | ″++++″ (≥75% = ++++) | ″+″ (<20% = +) | – | – |
| 79 (SLFIGEKAVLL; listed as Homo sapiens) [compound 79] | ″+++″ (≥50% = +++) | ″+″ (<20% = +) | – | – |
| 113 (GLLPTPLFGV; listed as Homo sapiens) [compound 113] | ″+++″ (≥50% = +++) | ″+″ (<20% = +) | – | – |
| 118 (KLIDNNINV; listed as Homo sapiens) [compound 118] | ″+++″ (≥50% = +++) | ″+″ (<20% = +) | – | – |
| 141 (YLDFSNNRL; listed as Homo sapiens) [compound 141] | ″++″ (≥20% = ++) | ″+″ (<20% = +) | – | – |
| 648 (LLWGNAIFL; listed as Homo sapiens) [compound 648] | – | – | +++ (50%-69% = +++) | ++ (20%-49% = ++) |
| 652 (TLWYRAPEV; listed as Homo sapiens) [compound 652] | – | – | ++++ (> = 70% = ++++) | +++ (50%-69% = +++) |
| 659 (ILFPDIIARA; listed as Homo sapiens) [compound 659] | – | – | +++ (50%-69% = +++) | + (<20% = +) |
| 662 (KIQEILTQV; listed as Homo sapiens) [compound 662] | – | – | +++ (50%-69% = +++) | + (<20% = +) |
| 663 (KIQEMQHFL; listed as Homo sapiens) [compound 663] | – | – | +++ (50%-69% = +++) | + (<20% = +) |
